Source: ChEMBL document CHEMBL4043123, “α-Geminal disubstituted pyrrolidine iminosugars and their C-4-fluoro analogues: Synthesis, glycosidase inhibition and molecular docking studies” (Bioorg Med Chem, 2017)
Calls of active or inactive are those of the source. The calls are words filed in the database; no cut-off is given here.

Assays:
Oryza sativa = assay: Inhibition of rice alpha-glucosidase at 1 mM pre-incubated for 1 hr followed by p-nitrophenyl-alpha-D-glucopyranoside substrate addition by fluorescence detection based assay
Saccharomyces cerevisiae = assay: Inhibition of yeast alpha-glucosidase at 1 mM pre-incubated for 1 hr followed by p-nitrophenyl-alpha-D-glucopyranoside substrate addition by fluorescence detection based assay
[1] = Inhibition of almond beta-glucosidase pre-incubated for 1 hr followed by p-nitrophenyl-beta-D-glucopyranoside, substrate addition by fluorescence detection based assay; parameters: species or system Prunus dulcis
Alpha-galactosidase [2] = target: T1, Alpha-galactosidase (Coffea arabica, UniProt Q42656); assay: Competitive inhibition of coffee beans alpha-galactosidase pre-incubated for 1 hr followed by p-nitrophenyl-alpha-D-galactopyranoside substrate addition by fluorescence detection based assay
Escherichia coli = assay: Inhibition of Escherichia coli beta-galactosidase at 1 mM pre-incubated for 1 hr followed by p-nitrophenyl-beta-D-galactopyranoside substrate addition by fluorescence detection based assay
[3] = target: T2, Alpha-mannosidase (Canavalia ensiformis) (UniProt C0HJB3); assay: Inhibition of jack beans alpha-mannosidase […] at 1 mM pre-incubated for 1 hr followed by […] substrate addition by fluorescence detection based assay
T2 sequence (whole entry): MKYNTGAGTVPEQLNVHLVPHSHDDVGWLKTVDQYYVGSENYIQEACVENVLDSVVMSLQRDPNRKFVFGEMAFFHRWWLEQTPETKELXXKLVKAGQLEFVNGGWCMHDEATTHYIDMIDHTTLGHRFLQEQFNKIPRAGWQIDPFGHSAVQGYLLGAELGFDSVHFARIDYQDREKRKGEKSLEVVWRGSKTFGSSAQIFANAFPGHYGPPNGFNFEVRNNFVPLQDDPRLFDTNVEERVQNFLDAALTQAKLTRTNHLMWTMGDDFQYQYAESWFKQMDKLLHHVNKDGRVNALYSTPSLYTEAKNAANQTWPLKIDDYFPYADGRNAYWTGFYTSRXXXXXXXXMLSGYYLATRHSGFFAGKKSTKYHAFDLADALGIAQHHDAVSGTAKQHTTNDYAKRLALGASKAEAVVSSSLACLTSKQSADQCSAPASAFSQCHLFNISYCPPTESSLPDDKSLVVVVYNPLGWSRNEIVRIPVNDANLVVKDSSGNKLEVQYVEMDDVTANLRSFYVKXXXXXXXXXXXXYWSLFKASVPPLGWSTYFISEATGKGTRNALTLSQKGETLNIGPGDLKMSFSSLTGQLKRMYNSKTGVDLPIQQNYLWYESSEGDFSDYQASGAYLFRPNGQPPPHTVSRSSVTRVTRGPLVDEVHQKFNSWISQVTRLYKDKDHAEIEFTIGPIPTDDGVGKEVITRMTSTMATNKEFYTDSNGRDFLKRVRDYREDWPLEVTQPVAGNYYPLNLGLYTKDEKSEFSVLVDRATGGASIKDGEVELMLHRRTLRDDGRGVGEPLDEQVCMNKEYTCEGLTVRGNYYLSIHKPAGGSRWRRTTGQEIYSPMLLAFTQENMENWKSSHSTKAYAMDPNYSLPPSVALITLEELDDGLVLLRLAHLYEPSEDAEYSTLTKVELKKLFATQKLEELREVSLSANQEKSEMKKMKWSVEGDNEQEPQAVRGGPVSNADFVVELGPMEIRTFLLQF

[4] = Inhibition of rice alpha-glucosidase pre-incubated for 1 hr followed by p-nitrophenyl-alpha-D-glucopyranoside substrate addition by fluorescence detection based assay; parameters: species or system Oryza sativa
Prunus dulcis = assay: Inhibition of almond beta-glucosidase at 1 mM pre-incubated for 1 hr followed by p-nitrophenyl-beta-D-glucopyranoside, substrate addition by fluorescence detection based assay
[5] = target: Alpha-galactosidase (Coffea arabica) (UniProt Q42656); assay: Inhibition of coffee beans alpha-galactosidase at 1 mM pre-incubated for 1 hr followed by p-nitrophenyl-alpha-D-galactopyranoside substrate addition by fluorescence detection based assay
Alpha-galactosidase [6] = target: T1, Alpha-galactosidase; assay: Inhibition of coffee beans alpha-galactosidase pre-incubated for 1 hr followed by p-nitrophenyl-alpha-D-galactopyranoside substrate addition by fluorescence detection based assay
[7] = Competitive inhibition of Escherichia coli beta-galactosidase pre-incubated for 1 hr followed by p-nitrophenyl-beta-D-galactopyranoside substrate addition by fluorescence detection based assay
[8] = Inhibition of yeast alpha-glucosidase pre-incubated for 1 hr followed by p-nitrophenyl-alpha-D-glucopyranoside substrate addition by fluorescence detection based assay; parameters: species or system Saccharomyces cerevisiae
[9] = Competitive inhibition of almond beta-glucosidase pre-incubated for 1 hr followed by p-nitrophenyl-beta-D-glucopyranoside, substrate addition by fluorescence detection based assay; parameters: species or system Prunus dulcis

T1 sequence (Q42656 whole entry): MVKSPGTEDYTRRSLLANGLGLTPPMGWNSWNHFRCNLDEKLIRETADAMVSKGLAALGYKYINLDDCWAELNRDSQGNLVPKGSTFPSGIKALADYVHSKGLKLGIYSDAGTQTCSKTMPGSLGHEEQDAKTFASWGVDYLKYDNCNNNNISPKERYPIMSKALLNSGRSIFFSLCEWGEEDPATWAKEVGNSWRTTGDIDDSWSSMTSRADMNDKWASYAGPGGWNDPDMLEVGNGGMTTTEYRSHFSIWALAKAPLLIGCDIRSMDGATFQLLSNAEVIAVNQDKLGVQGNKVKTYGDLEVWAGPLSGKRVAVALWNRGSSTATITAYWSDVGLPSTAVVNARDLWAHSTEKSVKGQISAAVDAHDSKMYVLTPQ
Chain of Alpha-galactosidase (Coffea arabica) (Q42656 16-378 limits assumed): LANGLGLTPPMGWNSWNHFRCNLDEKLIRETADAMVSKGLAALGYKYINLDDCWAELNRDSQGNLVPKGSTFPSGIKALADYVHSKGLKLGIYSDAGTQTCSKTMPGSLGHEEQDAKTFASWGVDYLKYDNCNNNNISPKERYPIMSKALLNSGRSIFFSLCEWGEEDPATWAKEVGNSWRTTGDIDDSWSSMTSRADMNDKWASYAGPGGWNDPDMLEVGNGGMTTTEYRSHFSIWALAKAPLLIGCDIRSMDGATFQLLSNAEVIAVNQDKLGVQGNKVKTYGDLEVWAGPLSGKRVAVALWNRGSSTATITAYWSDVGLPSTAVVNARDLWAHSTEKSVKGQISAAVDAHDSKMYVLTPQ

| SMILES | inhibition (Oryza sativa) | inhibition (Saccharomyces cerevisiae) | IC50 [1] [µM] | Ki [1] [µM] | IC50 (Alpha-galactosidase [2]) [nM] | Ki (Alpha-galactosidase [2]) [nM] | inhibition (Escherichia coli) | inhibition [3] | IC50 [4] [µM] | Ki [4] [µM] | inhibition (Prunus dulcis) | inhibition [5] | IC50 (Alpha-galactosidase [6]) [µM] | Ki (Alpha-galactosidase [6]) [µM] | IC50 [7] [nM] | Ki [7] [nM] | IC50 [8] [µM] | Ki [8] [µM] | IC50 [9] [nM] | Ki [9] [nM] |
| --- | --- | --- | --- | --- | --- | --- | --- | --- | --- | --- | --- | --- | --- | --- | --- | --- | --- | --- | --- | --- |
| O=C(O)[C@@]1(CO)NC[C@@H](O)[C@H]1O | inactive | inactive | 445 | 349 | 79 | 62 | inactive | inactive | – | – | – | – | – | – | – | – | – | – | – | – |
| OCCN1C[C@H](O)[C@@H](O)[C@H](O)[C@H]1CO [MIGLITOL] | – | inactive | – | – | – | – | inactive | inactive | 0.05 | 0.028 | inactive | inactive | – | – | – | – | – | – | – | – |
| OCC1(CO)NC[C@@H](O)[C@H]1O | inactive | inactive | – | – | 16 | 8 | inactive | inactive | – | – | inactive | – | – | – | – | – | – | – | – | – |
| O=C(O)[C@@]1(CO)NC[C@H](F)[C@H]1O | inactive | inactive | – | – | – | – | inactive | inactive | – | – | inactive | – | 392 | 364 | – | – | – | – | – | – |
| O=C(O)[C@]1(CO)NC[C@H](F)[C@H]1O | inactive | inactive | – | – | – | – | – | inactive | – | – | inactive | inactive | – | – | 65 | 51 | – | – | – | – |
| O=C(O)[C@]1(CO)NC[C@@H](O)[C@H]1O | inactive | – | – | – | – | – | inactive | inactive | – | – | inactive | inactive | – | – | – | – | 763 | 619 | – | – |
| OCC1(CO)NC[C@H](F)[C@H]1O | – | inactive | – | – | – | – | inactive | inactive | 463 | 376 | – | inactive | – | – | – | – | – | – | 184 | 144 |
